Several values for one entry are separate records, joined by “and”; a condition that tells them apart may be missing. Equal entries are not always repeated.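 A five-concentration, 48-hour dose response in 96-well plates underlies each endpoint, interpolated linearly between surrounding concentrations. Here, GI50 denotes the concentration required for 50% inhibition of growth. TGI marks complete inhibition of growth.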 Where only a bound is given, the exact number is not on record here.

Some test systems named below: HOP-62 NSCLC; SF-268 CNS; UACC-257 melanoma; NCI-H522 lung; HCC-2998 colon; NCI-H23 lung; HCT-15 colon; RPMI-8226 leukemia; MCF7 breast; MDA-N.
What all share (experiment): DTP human tumour cell line panel, 48 h

As for `CCCCCCOc1ccc(C(=N)N(CCCC)CCCC)c2ccccc12`, the GI50 (commonly the concentration that inhibits growth by half) was 1700 nM in the assay on HOP-62 NSCLC; 1620 nM in the assay on SF-268 CNS; 1600 nM in the assay with UACC-257 melanoma; 610 nM in the assay on NCI-H522 lung; 1590 nM in the assay on HCC-2998 colon; 1450 nM in the assay with NCI-H23 lung. The TGI (usually the concentration giving total growth inhibition) in the assay on HOP-62 NSCLC was determined as 3.34 µM; in the assay with SF-268 CNS, 3.53 µM; in the assay with UACC-257 melanoma, 3.06 µM; in the assay with NCI-H522 lung, 2.07 µM; with HCC-2998 colon it was 3.03 µM; in the assay with NCI-H23 lung it was 2.8 µM.

For the compound `CC(C)(C)CC(C)(C)c1ccc(OCCOCC[N+](C)(C)Cc2ccccc2)cc1`, the TGI was 33.5 µM in the assay on HOP-62 NSCLC; 63.6 µM and 51.3 µM in the assay on HCT-15 colon; 5.92 µM with SF-268 CNS; 3.83 µM with RPMI-8226 leukemia; 3.03 µM in the assay with UACC-257 melanoma; 6.42 µM in the assay on NCI-H522 lung. Besides, the values for the TGI in the assay on HCC-2998 colon and in the assay on NCI-H23 lung were 4.05 µM and 6.01 µM, respectively. Also, the GI50 in the assay on HCT-15 colon is 16.6 µM.

As for `COC(=O)n1c(C[P+](c2ccccc2)(c2ccccc2)c2ccccc2)cc2ccccc21`, the total growth inhibition concentration (TGI) was determined as 4.57 µM with HOP-62 NSCLC; 34.2 µM in the assay with HCT-15 colon; 16.1 µM in the assay on SF-268 CNS; 14.7 µM with RPMI-8226 leukemia; 6.34 µM in the assay on NCI-H522 lung; 10.3 µM with HCC-2998 colon. In addition, the TGI with NCI-H23 lung came to 7.77 µM.

As to `O=CNNC(=O)Nc1ccc(Cl)cc1`, the total growth inhibition concentration (TGI) with HOP-62 NSCLC, in the assay on HCT-15 colon, in the assay with SF-268 CNS, in the assay with RPMI-8226 leukemia, in the assay with UACC-257 melanoma and with HCC-2998 colon was above 100 µM throughout. Besides, the total growth inhibition concentration (TGI) in the assay with NCI-H23 lung and in the assay with MCF7 breast was above 100 µM throughout.

In the case of `CC(=O)Nc1ccc(C(=O)N2N=C(C)/C(=C/c3ccc(O)cc3)C2=O)cc1`, the TGI with HOP-62 NSCLC, in the assay with HCT-15 colon, in the assay on SF-268 CNS, with RPMI-8226 leukemia, in the assay on UACC-257 melanoma and in the assay on NCI-H522 lung was above 100 µM throughout. Further, the TGI in the assay with HCC-2998 colon and in the assay on NCI-H23 lung was above 100 µM each time.

As for `Nc1c(N=Nc2ccc(-c3ccc(N=Nc4c(O)ccc5cc(S(=O)(=O)O)cc(S(=O)(=O)O)c45)cc3)cc2)c(S(=O)(=O)O)cc2cc(S(=O)(=O)O)c(N=Nc3ccccc3)c(O)c12`, the TGI in the assay with HOP-62 NSCLC, in the assay on HCT-15 colon, with SF-268 CNS, in the assay with RPMI-8226 leukemia, with UACC-257 melanoma and with NCI-H522 lung was above 100 µM each time. Moreover, the concentration for total growth inhibition (TGI) in the assay with HCC-2998 colon, with NCI-H23 lung and with MCF7 breast was above 100 µM in each case.

In the case of `c1ccc([P+](c2ccccc2)(c2ccccc2)c2ccc([P+](c3ccccc3)(c3ccccc3)c3ccccc3)cc2)cc1`, the TGI in the assay on HOP-62 NSCLC, in the assay with HCT-15 colon, in the assay on SF-268 CNS, in the assay with RPMI-8226 leukemia, in the assay with MDA-N and in the assay on UACC-257 melanoma was above 100 µM each time. Further, the concentration for total growth inhibition (TGI) in the assay with NCI-H522 lung, in the assay with NCI-H23 lung and in the assay on MCF7 breast was above 100 µM each time.

As to `O=S(=O)(O)C1CCC(O)C2[N-]CCCC21.O=S(=O)(O)C1CCC(O)C2[N-]CCCC21.[Zn+2]` (stereo not given), the TGI with HOP-62 NSCLC, in the assay on HCT-15 colon, in the assay on SF-268 CNS, with RPMI-8226 leukemia, in the assay on UACC-257 melanoma and with NCI-H522 lung was above 100 µM in each case. For the same compound, the total growth inhibition concentration (TGI) in the assay with HCC-2998 colon and in the assay on MCF7 breast was above 100 µM in each case.

For the compound `CC(C)(C)c1ccc(-c2nnc(-c3cc(C#N)cc(-c4nnc(-c5ccc(C(C)(C)C)cc5)o4)c3)o2)cc1`, the total growth inhibition concentration (TGI) in the assay on HOP-62 NSCLC, with HCT-15 colon, in the assay with SF-268 CNS, with RPMI-8226 leukemia, in the assay on MDA-N and in the assay with UACC-257 melanoma was above 100 µM each time. Besides, the TGI in the assay on NCI-H522 lung, in the assay on HCC-2998 colon and with NCI-H23 lung was above 100 µM in each case.

In the case of `CCOC1=C2NC(Cc3ccc(F)cc3)=NC2C(=O)c2ccccc21` (stereo not given), the TGI with HOP-62 NSCLC was above 100 µM; in the assay on RPMI-8226 leukemia, 37.8 µM; in the assay on UACC-257 melanoma it was 50.8 µM; in the assay with NCI-H522 lung, 46.1 µM; in the assay on HCC-2998 colon, above 100 µM; with NCI-H23 lung it was 53.4 µM.

Regarding `c1ccc(OCCSCCCCCCCCCCSCCOc2ccccc2)cc1`, the TGI in the assay on HOP-62 NSCLC, in the assay with HCT-15 colon, in the assay on SF-268 CNS, in the assay with RPMI-8226 leukemia, in the assay on UACC-257 melanoma and in the assay with NCI-H522 lung was above 100 µM each time. Besides, the TGI in the assay with HCC-2998 colon and in the assay with NCI-H23 lung was above 100 µM throughout.

For the compound `COc1ccc(C=Nc2ccc(-c3nc4ccccc4[nH]3)cc2)cc1OC`, the total growth inhibition concentration (TGI) with HOP-62 NSCLC, in the assay with HCT-15 colon, with SF-268 CNS, in the assay on RPMI-8226 leukemia, in the assay on MDA-N and with UACC-257 melanoma was above 100 µM each time. The total growth inhibition concentration (TGI) in the assay on NCI-H522 lung, in the assay with NCI-H23 lung and in the assay on MCF7 breast was above 100 µM throughout.

With `C/C(=C\Cc1cc(O)ccc1O)CCc1c(C)cc(O)c(C=O)c1C`, the concentration for total growth inhibition (TGI) in the assay on HCT-15 colon is 84.5 µM; in the assay on SF-268 CNS, 46 µM; in the assay with RPMI-8226 leukemia, above 100 µM; with NCI-H522 lung it was 23.6 µM; with HCC-2998 colon it was above 100 µM; in the assay on NCI-H23 lung it was 70.8 µM.

For the compound `CC1=C2C(=O)c3ccccc3C(=O)[C@H]2C[C@@H](N2CCCCCC2=O)O1`, the concentration for total growth inhibition (TGI) is 33 µM in the assay with HOP-62 NSCLC; 47.5 µM in the assay on HCT-15 colon; 36.3 µM in the assay with SF-268 CNS; 35.4 µM in the assay on RPMI-8226 leukemia; 29.4 µM in the assay with MDA-N; 31.2 µM in the assay with UACC-257 melanoma. Also, the TGI with NCI-H522 lung was found to be 38.9 µM; with HCC-2998 colon, 31.4 µM; in the assay on NCI-H23 lung, 31.1 µM.

Regarding `COc1ccc(/C=C2\CCC(CNc3ccc(Br)cc3)C2=O)cc1` (stereo not given), the TGI was above 100 µM with HOP-62 NSCLC; above 100 µM in the assay on HCT-15 colon; above 100 µM in the assay on SF-268 CNS; 33.3 µM with RPMI-8226 leukemia; above 100 µM in the assay on UACC-257 melanoma; above 100 µM in the assay with HCC-2998 colon. The TGI in the assay on NCI-H23 lung and with MCF7 breast was above 100 µM in each case.

For the origin of these results see PubChem BioAssay (NCI).
